Reference: ChEMBL document CHEMBL4052642, “4-Methyl-6,7-dihydro-4H-triazolo[4,5-c]pyridine-Based P2X7 Receptor Antagonists: Optimization of Pharmacokinetic Properties Leading to the Identification of a Clinical Candidate” (J Med Chem, 2017)
≈ marks a conversion by molar mass, not a printed value. Calls of active or inactive are those of the source. The rule behind the calls is not given here.

Key:
Homo sapiens = species on record: Homo sapiens; test: Toxicity in human at 0.5 to 600 mg
Canis familiaris [1] = test: Toxicity in dog at 30 to 300 mg/kg administered via oral gavage on day 1 and day 5 by histopathological method; assay type: organism-based, Canis lupus familiaris; conditions: in vivo
Canis familiaris [2] = test: Toxicity in dog assessed as change in serum chemistry at 30 to 300 mg/kg administered via oral gavage on day 1 and day 5; assay type: organism-based, Canis lupus familiaris; conditions: in vivo
[3] = Drug uptake in dog brain at 3 mg/kg, po after 168 hrs; assay type: ADME, organism-based, Canis lupus familiaris; conditions: read-out: Drug uptake
Canis familiaris [4] = test: Ex vivo receptor occupancy at P2X7 in dog brain at 3 mg/kg, po after 96 hrs by autoradiography; assay type: functional, organism-based; conditions: Canis lupus familiaris
[5] = Antagonist activity at P2X7 in dog whole blood assessed as inhibition of BzATP-induced IL-1beta release preincubated for 30 mins followed by BzATP addition measured after […] by ELISA; conditions: Canis lupus familiaris
P2X purinoceptor 7 [6] = molecular target: T1, P2X purinoceptor 7 (Mus musculus, UniProt Q9Z1M0); test: Antagonist activity at P2X7 in mouse whole blood assessed as inhibition of BzATP-induced IL-1beta release preincubated for 30 mins followed by BzATP addition measured after […] by ELISA
T1 sequence (Q9Z1M0 whole entry): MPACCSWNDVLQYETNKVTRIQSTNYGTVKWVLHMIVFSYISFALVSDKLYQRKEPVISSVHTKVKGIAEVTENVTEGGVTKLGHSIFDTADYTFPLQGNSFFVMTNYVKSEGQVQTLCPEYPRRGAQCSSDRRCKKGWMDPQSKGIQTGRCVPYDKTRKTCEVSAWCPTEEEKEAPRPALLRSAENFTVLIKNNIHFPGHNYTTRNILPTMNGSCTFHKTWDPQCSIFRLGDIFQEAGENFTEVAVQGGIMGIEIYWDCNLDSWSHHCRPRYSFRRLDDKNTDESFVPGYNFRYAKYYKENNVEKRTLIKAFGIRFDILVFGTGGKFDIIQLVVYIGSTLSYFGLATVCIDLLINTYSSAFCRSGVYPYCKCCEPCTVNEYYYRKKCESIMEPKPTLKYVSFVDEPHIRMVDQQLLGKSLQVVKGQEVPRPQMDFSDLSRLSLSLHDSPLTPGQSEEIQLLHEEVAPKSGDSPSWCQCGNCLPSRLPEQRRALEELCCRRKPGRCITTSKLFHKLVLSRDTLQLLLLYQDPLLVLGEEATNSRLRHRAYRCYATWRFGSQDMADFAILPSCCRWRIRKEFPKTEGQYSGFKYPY

P2X purinoceptor 7 [7] = molecular target: T1, P2X purinoceptor 7; test: Antagonist activity at mouse P2X7 assessed as inhibition of BzATP-induced calcium flux preincubated for 30 mins followed by BzATP addition measured over 180 secs by FLIPR assay
[8] = Apparent permeability across basolateral to apical side in human Caco2 cells; assay type: ADME, cell-based; conditions: Caco-2
Hepatocyte = test: Metabolic stability in hepatocytes (unknown origin); assay type: ADME, cell-based
Cynomolgus monkey = test: Oral bioavailability in cynomolgus monkey at 5 mg/kg by LC-MS/MS analysis; assay type: ADME, organism-based, Macaca fascicularis; conditions: in vivo
[9] = Half life in beagle dog at 0.5 mg/kg, iv by LC-MS/MS analysis; assay type: ADME, organism-based, Canis lupus familiaris; conditions: in vivo
[10] = Volume of distribution at steady state in cynomolgus monkey at 1 mg/kg, iv or 5 mg/kg, po by LC-MS/MS analysis; assay type: ADME, organism-based, Macaca fascicularis; conditions: in vivo, read-out: Vdss
[11] = Volume of distribution at steady state in beagle dog at 0.5 mg/kg, iv or 2.5 mg/kg, po by LC-MS/MS analysis; assay type: ADME, organism-based, Canis lupus familiaris; conditions: in vivo, read-out: Vdss
[12] = Clearance in cynomolgus monkey at 1 mg/kg, iv or 5 mg/kg, po by LC-MS/MS analysis; assay type: ADME, organism-based, Macaca fascicularis; conditions: in vivo
Rattus norvegicus = test: Ex vivo receptor occupancy at P2X7 in po dosed Sprague-Dawley rat brain assessed as plasma concentration required to achieve EC50 after 60 mins by autoradiography; assay type: functional, organism-based
[13] = Half life in Sprague-Dawley rat at 1 mg/kg, iv by LC-MS/MS analysis; assay type: ADME, organism-based; conditions: in vivo
[14] = Volume of distribution at steady state in Sprague-Dawley rat at 1 mg/kg, iv or 5 mg/kg, po by LC-MS/MS analysis; assay type: ADME, organism-based; conditions: in vivo, read-out: Vdss
[15] = Solubility of compound in phosphate buffer at pH 7 after 3 days; assay type: physicochemical

- concentration at 168 h [3]: ≤ 500 nM
- IC50 [5]: 158 nM
- IC50 (P2X purinoceptor 7 [6]): 31.6 nM
- IC50 (P2X purinoceptor 7 [7]): 15.8 nM
- Papp B→A [8]: 48.8 ×10⁻⁶ cm/s
- Stability (Hepatocyte): Stable
- F (Cynomolgus monkey): 157%
- half-life [9]: 32 h
- Vd [10]: 2.1 L/kg
- Vd [11]: 2.5 L/kg
- clearance [12]: 4.4 mL/min/kg
- Cp (Rattus norvegicus): 105 ng/mL
- half-life [13]: 8.6 h
- Vd [14]: 2.1 L/kg
- solubility at 72 h [15]: 20.7 µM (≈ 9.12 µg/mL)
Compound: C[C@@H]1c2nnn(-c3ncc(F)cn3)c2CCN1C(=O)c1cccc(C(F)(F)F)c1Cl [JNJ-54175446]
- Activity (Homo sapiens): Non-Toxic
- Activity (Canis familiaris [1]): Non-Toxic
- Activity (Canis familiaris [2]): Non-Toxic
- Occ (Canis familiaris [4]): Active
